Data published in patent publication US20260053834A1, “COVALENT MODIFIERS OF AKT1 AND USES THEREOF” (Terremoto Biosciences, Inc., priority 2023, published 2026).
Where two headings read alike, the source gives them in different places.

Experiments:
AKT1 E17K = biological target: T1, AKT1 E17K (Homo sapiens, UniProt P31749, E17K); experiment: Live cell target engagement by NanoBRET competitive probe displacement, AKT1 E17K; format: binding; conditions: transfected HEK293 cells, 2 h at 37° C., read-out: AKT1 E17K IC50: GeoMean IC50
T1 construct: expressed in transfected cells; host or cells: HEK293

AKT1 WT = biological target: T2, AKT1 WT (Homo sapiens, UniProt P31749); experiment: Live cell target engagement by NanoBRET competitive probe displacement, AKT1 WT; format: binding; conditions: transfected HEK293 cells, 2 h at 37° C., read-out: AKT1 WT IC50: GeoMean IC50
T2 construct: expressed in transfected cells; host or cells: HEK293

AKT2 = biological target: T3, AKT2 (Homo sapiens, UniProt P31751); experiment: Live cell target engagement by NanoBRET competitive probe displacement, AKT2; format: binding; conditions: transfected HEK293 cells, 2 h at 37° C., read-out: AKT2 IC50: GeoMean IC50
T3 construct: expressed in transfected cells; host or cells: HEK293

[1] = tested on: LAPC4 prostate cancer cells, which express the AKT1 E17K allele; experiment: Antiproliferative effects in LAPC4 cells (CellTiter Glo, 72 h); format: cell-based; conditions: read-out: LAPC4 proliferation IC50: GeoMean IC50
Summary of the method: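 IC50 values come from Hill-equation fitting of luminescence (cellular ATP) after 72 h compound exposure. Treated wells held 1,000 cells each, with compound delivered as DMSO dilutions. Culture medium was IMDM plus 12% FBS.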

T3 sequence (P31751 whole entry): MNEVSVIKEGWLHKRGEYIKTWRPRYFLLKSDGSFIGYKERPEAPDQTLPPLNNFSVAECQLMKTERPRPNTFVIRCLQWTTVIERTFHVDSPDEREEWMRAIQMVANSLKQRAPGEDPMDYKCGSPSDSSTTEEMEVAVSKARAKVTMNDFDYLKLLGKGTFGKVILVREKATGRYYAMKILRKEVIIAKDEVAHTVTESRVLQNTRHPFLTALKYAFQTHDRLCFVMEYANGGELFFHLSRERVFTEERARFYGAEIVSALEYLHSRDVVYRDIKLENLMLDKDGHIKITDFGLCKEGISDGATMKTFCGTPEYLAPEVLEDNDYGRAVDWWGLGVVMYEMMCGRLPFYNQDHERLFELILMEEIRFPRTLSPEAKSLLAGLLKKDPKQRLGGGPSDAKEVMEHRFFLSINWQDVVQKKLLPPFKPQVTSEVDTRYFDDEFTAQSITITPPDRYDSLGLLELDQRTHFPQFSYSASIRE
T1 sequence (P31749 whole entry E17K): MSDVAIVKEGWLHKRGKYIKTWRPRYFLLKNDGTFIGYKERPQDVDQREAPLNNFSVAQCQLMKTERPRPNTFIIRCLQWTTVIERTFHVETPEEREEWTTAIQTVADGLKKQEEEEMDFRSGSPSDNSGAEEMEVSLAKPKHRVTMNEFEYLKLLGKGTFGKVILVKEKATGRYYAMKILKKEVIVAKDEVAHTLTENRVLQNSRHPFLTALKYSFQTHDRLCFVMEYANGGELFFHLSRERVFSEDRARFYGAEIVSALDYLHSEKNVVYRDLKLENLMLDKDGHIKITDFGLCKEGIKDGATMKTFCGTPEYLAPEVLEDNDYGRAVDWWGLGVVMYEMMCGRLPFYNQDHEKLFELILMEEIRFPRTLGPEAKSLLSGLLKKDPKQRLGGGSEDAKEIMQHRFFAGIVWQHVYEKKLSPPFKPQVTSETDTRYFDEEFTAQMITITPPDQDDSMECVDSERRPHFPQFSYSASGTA
T2 sequence (P31749 whole entry): as the sequence (P31749 whole entry E17K) above, with K17E counted along it

IC50 (AKT1 E17K) [µM]	IC50 (AKT1 WT) [µM]	IC50 (AKT2) [µM]	IC50 ([1]; Homo sapiens, LAPC4, 72 h) [µM]	IC50 [1] [µM]	Compound
< 0.01	0.01 to 0.1	0.1 to 2	0.01 to 0.1	–	Nc1ncccc1-c1nc2ccc(-c3ccccc3)nc2n1-c1ccc2c(c1)CCC2C(=O)NCc1ccc(C=O)c(O)c1 (stereo not shown) [Example 10, 5-(2-(2-aminopyridin-3-yl)-5-phenyl-3H-imidazo[4,5-b]pyridin-3-yl)-N-(4-formyl-3-hydroxybenzyl)-2,3-dihydro-1H-indene-1-carboxamide]
< 0.01	0.01 to 0.1	0.01 to 0.1	0.01 to 0.1	–	Nc1ncccc1-c1nc2ccc(-n3cccn3)nc2n1-c1ccc2c(c1)CC(F)[C@@H]2NC(=O)c1cc(C=O)c(O)cc1F (single isomer, unassigned) [Example 258, N-((1R,2R*)-5-(2-(2-aminopyridin-3-yl)-5-(1H-pyrazol-1-yl)-3H-imidazo[4,5-b]pyridin-3-yl)-2-fluoro-2,3-dihydro-1H-inden-1-yl)-2-fluoro-5-formyl-4-hydroxybenzamide]
< 0.01	0.01 to 0.1	0.01 to 0.1	0.01 to 0.1	–	Nc1ncccc1-c1nc2ccc(-c3ccn(C(F)F)n3)nc2n1-c1ccc2c(c1)CC[C@@H]2NC(=O)c1cc(C=O)c(O)c(F)c1F [Example 157, (S)—N-(5-(2-(2-aminopyridin-3-yl)-5-(1-(difluoromethyl)-1H-pyrazol-3-yl)-3H-imidazo[4,5-b]pyridin-3-yl)-2,3-dihydro-1H-inden-1-yl)-2,3-difluoro-5-formyl-4-hydroxybenzamide]
0.1 to 2	0.1 to 2	≥ 2	≥ 2	–	CS(=O)(=O)Nc1ncc(C(=O)N[C@H]2CCc3cc(-n4c(-c5cccnc5N)nc5ccc(-n6cccn6)nc54)ccc32)cc1C=O [Example 111, N-[(1S)-5-[2-(2-aminopyridin-3-yl)-5-(pyrazol-1-yl)imidazo[4,5-b]pyridin-3-yl]-2,3-dihydro-1H-inden-1-yl]-5-formyl-6-methanesulfonamidopyridine-3-carboxamide]
0.01 to 0.1	0.01 to 0.1	0.1 to 2	0.1 to 2	–	COc1cc(C(=O)N[C@H]2CCc3cc(-n4c(-c5cccnc5N)nc5ccc(-n6cccn6)nc54)ccc32)cc(C=O)c1O [Example 182, N-[(1S)-5-[2-(2-aminopyridin-3-yl)-5-(pyrazol-1-yl)imidazo[4,5-b]pyridin-3-yl]-2,3-dihydro-1H-inden-1-yl]-3-formyl-4-hydroxy-5-methoxybenzamide]
0.01 to 0.1	0.01 to 0.1	0.1 to 2	0.01 to 0.1	–	Nc1ncccc1-c1nc2ccc(-c3ccn(C(F)F)n3)nc2n1-c1ccc2c(c1)CC[C@@H]2NC(=O)c1cc(C=O)c(O)cc1F [Example 158, N-[(1S)-5-[2-(2-aminopyridin-3-yl)-5-[1-(difluoromethyl)pyrazol-3-yl]imidazo[4,5-b]pyridin-3-yl]-2,3-dihydro-1H-inden-1-yl]-2-fluoro-5-formyl-4-hydroxybenzamide]
0.01 to 0.1	0.01 to 0.1	0.1 to 2	0.01 to 0.1	–	Cc1coc(-c2ccc3nc(-c4cccnc4N)n(-c4ccc5c(c4)CC[C@@H]5NC(=O)c4ccc(O)c(C=O)c4)c3n2)n1 [Example 178, N-[(1S)-5-[2-(2-aminopyridin-3-yl)-5-(4-methyl-1,3-oxazol-2-yl)imidazo[4,5-b]pyridin-3-yl]-2,3-dihydro-1H-inden-1-yl]-3-formyl-4-hydroxybenzamide]
0.01 to 0.1	0.01 to 0.1	0.1 to 2	0.1 to 2	–	C#Cc1cc(O)c(C=O)cc1C(=O)N[C@H]1CCc2cc(-n3c(-c4cccnc4N)nc4ccc(-n5cccn5)nc43)ccc21 [Example 145, N-[(1S)-5-[2-(2-aminopyridin-3-yl)-5-(pyrazol-1-yl)imidazo[4,5-b]pyridin-3-yl]-2,3-dihydro-1H-inden-1-yl]-2-ethynyl-5-formyl-4-hydroxybenzamide]
0.01 to 0.1	0.01 to 0.1	0.1 to 2	0.1 to 2	–	Nc1ncccc1-c1nc2ccc(-c3cnccn3)nc2n1-c1ccc2c(c1)CC[C@@H]2NC(=O)c1cc(F)c(O)c(C=O)c1 [Example 70, (S)—N-(5-(2-(2-aminopyridin-3-yl)-5-(pyrazin-2-yl)-3H-imidazo[4,5-b]pyridin-3-yl)-2,3-dihydro-1H-inden-1-yl)-3-fluoro-5-formyl-4-hydroxybenzamide]
0.01 to 0.1	0.01 to 0.1	0.1 to 2	0.1 to 2	–	Nc1ncccc1-c1nc2ccc(-n3cccn3)nc2n1-c1ccc2c(c1)CC[C@@H]2NC(=O)c1cc(C=O)c(O)c(OC(F)F)c1 [Example 168, (S)—N-(5-(2-(2-aminopyridin-3-yl)-5-(1H-pyrazol-1-yl)-3H-imidazo[4,5-b]pyridin-3-yl)-2,3-dihydro-1H-inden-1-yl)-3-(difluoromethoxy)-5-formyl-4-hydroxybenzamide]
< 0.01	< 0.01	0.01 to 0.1	0.01 to 0.1	–	Nc1ncccc1-c1nc2ccc(-c3ccccc3)nc2n1-c1ccc2c(c1)CC[C@@H]2NC(=O)c1ccc(NC(=O)C(F)F)c(C=O)c1 [Example 52, N-[(1S)-5-[2-(2-aminopyridin-3-yl)-5-phenylimidazo[4,5-b]pyridin-3-yl]-2,3-dihydro-1H-inden-1-yl]-4-(2,2-difluoroacetamido)-3-formylbenzamide]
< 0.01	0.01 to 0.1	0.1 to 2	0.01 to 0.1	–	Nc1ncccc1-c1nc2ccc(-c3ccn(C(F)F)n3)nc2n1-c1ccc2c(c1)CC[C@@H]2NC(=O)c1ccc(O)c(C=O)c1 [Example 113, N-[(1S)-5-[2-(2-aminopyridin-3-yl)-5-[1-(difluoromethyl)pyrazol3-yl]imidazo [4,5-b]pyridin-3-yl]-2,3-dihydro-1H-inden-1-yl]-3-formyl-4-hydroxybenzamide]
< 0.01	0.01 to 0.1	0.1 to 2	< 0.01	–	CN(C)C(=O)Nc1ccc(C(=O)N[C@H]2CCc3cc(-n4c(-c5cccnc5N)nc5ccc(-n6cccn6)nc54)ccc32)cc1C=O [Example 104, N-[(1S)-5-[2-(2-aminopyridin-3-yl)-5-(pyrazol-1-yl)imidazo[4,5-b]pyridin-3-yl]-2,3-dihydro-1H-inden-1-yl]-4-[(dimethylcarbamoyl)amino]-3-formylbenzamide]
0.01 to 0.1	0.01 to 0.1	0.1 to 2	0.1 to 2	–	Nc1ncccc1-c1nc2c(Cl)cc(-n3cccn3)nc2n1-c1ccc2c(c1)CC[C@@H]2NC(=O)c1ccc(O)c(C=O)c1 [Example 196, (S)—N-(5-(2-(2-aminopyridin-3-yl)-7-chloro-5-(1H-pyrazol-1-yl)-3H-imidazo[4,5-b]pyridin-3-yl)-2,3-dihydro-1H-inden-1-yl)-3-formyl-4-hydroxybenzamide]
0.01 to 0.1	0.01 to 0.1	0.01 to 0.1	0.01 to 0.1	–	Cc1cc(-c2nccs2)nc2c1nc(-c1cccnc1N)n2-c1ccc2c(c1)CC[C@@H]2NC(=O)c1ccc(O)c(C=O)c1 [Example 180, N-[(1S)-5-[2-(2-aminopyridin-3-yl)-7-methyl-5-(1,3-thiazol-2-yl)imidazo[4,5-b]pyridin-3-yl]-2,3-dihydro-1H-inden-1-yl]-3-formyl-4-hydroxybenzamide]
0.01 to 0.1	0.01 to 0.1	0.1 to 2	0.1 to 2	–	Nc1ncccc1-c1nc2ccc(-n3cccn3)nc2n1-c1ccc2c(c1)CC[C@@H]2NC(=O)c1cc(C=O)c(O)c(F)c1Cl [Example 110, N-[(1S)-5-[2-(2-aminopyridin-3-yl)-5-(pyrazol-1-yl)imidazo[4,5-b]pyridin-3-yl]-2,3-dihydro-1H-inden-1-yl]-2-chloro-3-fluoro-5-formyl-4-hydroxybenzamide]
< 0.01	0.01 to 0.1	0.1 to 2	0.1 to 2	–	CC(=O)Nc1ccc(C(=O)N[C@H]2CCc3cc(-n4c(-c5cccnc5N)nc5ccc(N6CCOCC6)nc54)ccc32)cc1C=O [Example 53, N-[(1S)-5-[2-(2-aminopyridin-3-yl)-5-(morpholin-4-yl)imidazo[4,5-b]pyridin-3-yl]-2,3-dihydro-1H-inden-1-yl]-4-acetamido-3-formylbenzamide]
0.01 to 0.1	0.1 to 2	0.1 to 2	0.1 to 2	–	[N-]=[N+]=Nc1cc(O)c(C=O)cc1C(=O)N[C@H]1CCc2cc(-n3c(-c4cccnc4N)nc4ccc(-n5cccn5)nc43)ccc21 [Example 235, N-[(1S)-5-[2-(2-aminopyridin-3-yl)-5-(pyrazol-1-yl)imidazo[4,5-b]pyridin-3-yl]-2,3-dihydro-1H-inden-1-yl]-2-azido-5-formyl-4-hydroxybenzamide]
0.01 to 0.1	0.01 to 0.1	0.1 to 2	–	0.01 to 0.1	Nc1ncccc1-c1nc2ccc(-n3cccn3)nc2n1-c1ccc2c(c1)CC(F)[C@@H]2NC(=O)c1ccc(O)c(C=O)c1 (single isomer, unassigned) [Example 256, N-[(1R,2R*)-5-[2-(2-aminopyridin-3-yl)-5-(pyrazol-1-yl)imidazo[4,5-b]pyridin-3-yl]-2-fluoro-2,3-dihydro-1H-inden-1-yl]-3-formyl-4-hydroxybenzamide]
